Values of other authors as cited in paper PMC2677997 (Bioorganic & medicinal chemistry, 2009).

Test system: SNARE cleavage in neuronal cells
Settings: cited from earlier work

## O=C(/C=C/c1ccc(Cl)cc1Cl)NO [Compound 2, 2,4-dichlorocinnamic hydroxamic acid]
  activity in a cellular assay: inactive or cytotoxic
